Assay results taken from ChEMBL document CHEMBL1150477, “Development of angiotensin II antagonists with equipotent affinity for human AT1 and AT2 receptor subtypes” (Bioorg Med Chem Lett, 1994).
Numbering of substitutions follows the chain as printed.

Experiments:
[1] = test system: Rattus norvegicus; assay: In vivo inhibition of angiotensin II induced pressor response in rats at a dose of 1.0 mg/Kg administered intravenously; type: functional; details: iv
[2] = target: Angiotensin II receptor (Rattus norvegicus) (UniProt P29089+P25095+P35351); assay: Ratio of inhibitory concentration against AT2 receptor and AT1 receptor of rat adrenal membrane
[3] = target: Angiotensin II receptor (Homo sapiens) (UniProt P30556+P50052); assay: Ratio of inhibitory concentration against AT2 receptor and AT1 receptor of human adrenal membrane
[4] = test system: Canis familiaris; assay: In vivo inhibition of angiotensin II induced pressor response in dogs at a dose of 1.0 mg/Kg after 6 hr administered intravenously; type: functional; details: Canis lupus familiaris, iv
[5] = target: T1, Type-2 angiotensin II receptor (Rattus norvegicus, UniProt P35351); assay: […] inhibitory concentration against AT2 receptor of rat adrenal membrane
T1 sequence (P35351 whole entry): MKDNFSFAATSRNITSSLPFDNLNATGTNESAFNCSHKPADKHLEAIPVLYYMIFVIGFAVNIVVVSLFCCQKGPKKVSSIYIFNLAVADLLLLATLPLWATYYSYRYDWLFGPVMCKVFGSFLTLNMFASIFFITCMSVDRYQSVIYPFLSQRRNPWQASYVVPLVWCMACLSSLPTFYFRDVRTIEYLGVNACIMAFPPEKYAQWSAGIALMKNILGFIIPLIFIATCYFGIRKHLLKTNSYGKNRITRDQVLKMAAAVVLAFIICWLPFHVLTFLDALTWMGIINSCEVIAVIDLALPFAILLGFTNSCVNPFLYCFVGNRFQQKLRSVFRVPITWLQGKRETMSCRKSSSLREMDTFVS

[6] = test system: Canis familiaris; assay: In vivo inhibition of angiotensin II induced pressor response in dogs at a dose of 1.0 mg/Kg administered intravenously; type: functional; details: Canis lupus familiaris, iv
[7] = target: T2, Type-1 angiotensin II receptor (Oryctolagus cuniculus, UniProt P34976); assay: […] inhibitory concentration against Angiotensin II receptor, type 1 of rabbit aorta membrane
T2 sequence (P34976 whole entry): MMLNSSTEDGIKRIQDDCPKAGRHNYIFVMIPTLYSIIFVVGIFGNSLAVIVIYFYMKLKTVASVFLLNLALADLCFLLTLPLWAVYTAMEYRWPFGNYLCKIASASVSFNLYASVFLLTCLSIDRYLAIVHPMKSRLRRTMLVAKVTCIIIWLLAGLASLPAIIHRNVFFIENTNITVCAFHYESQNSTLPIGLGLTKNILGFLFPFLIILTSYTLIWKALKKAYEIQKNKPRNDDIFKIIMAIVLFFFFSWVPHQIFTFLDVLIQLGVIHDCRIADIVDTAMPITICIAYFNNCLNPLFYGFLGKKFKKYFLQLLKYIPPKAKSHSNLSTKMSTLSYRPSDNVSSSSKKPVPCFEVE

[8] = test system: Rattus norvegicus; assay: In vivo inhibition of angiotensin II induced pressor response in rats at a dose of 1.0 mg/Kg after 6 hr administered intravenously; type: functional; details: iv
[9] = target: T3, Type-1 angiotensin II receptor (Homo sapiens, UniProt P30556); assay: […] inhibitory concentration against Angiotensin II receptor, type 1 of human adrenal membrane
T3 sequence (P30556 whole entry): T2 sequence (P34976 whole entry) with M2I, A49V, V254I, V270I, H272R, K311R, S349T, V353A

[10] = species: Oryctolagus cuniculus; assay: Ratio of inhibitory concentration against AT2 receptor of rat midbrain to AT1 receptor of rabbit aorta
[11] = target: T4, Angiotensin II receptor (AT-1) type-1 (Rattus norvegicus, UniProt P29089+P25095); assay: […] inhibitory concentration against Angiotensin II receptor, type 1 of rat adrenal membrane
T4 sequence (P29089 whole entry): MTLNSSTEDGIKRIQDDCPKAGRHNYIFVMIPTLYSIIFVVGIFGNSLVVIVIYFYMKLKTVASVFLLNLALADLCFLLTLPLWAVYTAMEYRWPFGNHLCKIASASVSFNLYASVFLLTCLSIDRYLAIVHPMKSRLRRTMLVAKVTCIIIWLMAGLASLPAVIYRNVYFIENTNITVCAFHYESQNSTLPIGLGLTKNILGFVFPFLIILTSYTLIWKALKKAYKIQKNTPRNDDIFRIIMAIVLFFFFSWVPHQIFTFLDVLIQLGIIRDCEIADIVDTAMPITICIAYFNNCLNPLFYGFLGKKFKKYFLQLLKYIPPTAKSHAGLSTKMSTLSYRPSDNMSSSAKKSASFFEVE
T4 sequence (P25095 whole entry): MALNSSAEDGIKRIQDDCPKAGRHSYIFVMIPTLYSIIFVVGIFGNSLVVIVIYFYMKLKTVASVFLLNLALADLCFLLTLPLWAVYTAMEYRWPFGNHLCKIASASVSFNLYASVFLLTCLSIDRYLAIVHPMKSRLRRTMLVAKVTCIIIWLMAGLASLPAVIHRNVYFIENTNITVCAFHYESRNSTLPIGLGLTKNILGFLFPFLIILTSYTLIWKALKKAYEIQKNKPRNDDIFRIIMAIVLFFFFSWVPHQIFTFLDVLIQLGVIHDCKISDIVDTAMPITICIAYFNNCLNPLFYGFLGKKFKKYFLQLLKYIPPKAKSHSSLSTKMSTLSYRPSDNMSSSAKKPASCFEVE

[12] = target: T5, Type-2 angiotensin II receptor (Homo sapiens, UniProt P50052); assay: […] inhibitory concentration against AT2 receptor of human adrenal membrane
T5 sequence (P50052 whole entry): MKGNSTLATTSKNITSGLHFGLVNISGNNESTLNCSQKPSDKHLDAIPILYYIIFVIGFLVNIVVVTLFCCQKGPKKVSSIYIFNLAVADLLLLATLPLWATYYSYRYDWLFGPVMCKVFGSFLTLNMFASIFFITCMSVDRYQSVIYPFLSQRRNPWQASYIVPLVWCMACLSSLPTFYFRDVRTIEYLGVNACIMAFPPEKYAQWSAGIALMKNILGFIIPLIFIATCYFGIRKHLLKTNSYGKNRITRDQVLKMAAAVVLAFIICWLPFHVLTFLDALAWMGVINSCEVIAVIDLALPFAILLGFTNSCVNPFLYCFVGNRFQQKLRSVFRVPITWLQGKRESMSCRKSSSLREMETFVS

[13] = target: T1, Type-2 angiotensin II receptor; assay: […] inhibitory concentration against Angiotensin II, type 2 of rat midbrain membrane

Chain of Angiotensin II receptor (Homo sapiens) (P30556 whole entry, looked up, one chain of several): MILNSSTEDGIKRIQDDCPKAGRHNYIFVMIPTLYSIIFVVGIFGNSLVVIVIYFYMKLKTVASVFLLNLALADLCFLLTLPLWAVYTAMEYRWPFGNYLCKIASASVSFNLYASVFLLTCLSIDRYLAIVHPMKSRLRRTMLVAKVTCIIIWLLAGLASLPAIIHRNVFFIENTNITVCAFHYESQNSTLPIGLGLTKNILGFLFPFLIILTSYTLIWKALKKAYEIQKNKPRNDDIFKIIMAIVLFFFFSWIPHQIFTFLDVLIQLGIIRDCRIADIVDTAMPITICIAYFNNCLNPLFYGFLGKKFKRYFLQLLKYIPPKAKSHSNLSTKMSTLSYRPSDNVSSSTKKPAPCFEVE

| Ratio [2] | Ratio [3] | IC50 [5] [nM] | IC50 [7] [nM] | IC50 [9] [nM] | Ratio [10] | IC50 [11] [nM] | IC50 [12] [nM] | IC50 [13] [nM] | Structure (SMILES) | inhibition in vivo at 1 mg/kg [1] [%] | inhibition in vivo at 1 mg/kg [4] [%] | inhibition in vivo at 1 mg/kg [6] [%] | inhibition in vivo at 1 mg/kg [8] [%] |
| --- | --- | --- | --- | --- | --- | --- | --- | --- | --- | --- | --- | --- | --- |
| 1.83 | 0.87 | 0.77 | 0.57 | 8.1 | 1.2 | 0.5 | 6.2 | 0.39 | CCc1nc2ccc(NC(=O)N(C)C(C)C)cc2c(=O)n1Cc1ccc(-c2ccccc2S(=O)(=O)NC(=O)OCCC2CC2)cc1F | 91 | 48 | 89 | 62 |
| 2.7 | 0.62 | 1.04 | 0.77 | 14.7 | 0.97 | 0.39 | 9.3 | 0.75 | CCc1nc2ccc(NC(=O)N(C)C(C)C)cc2c(=O)n1Cc1ccc(-c2ccccc2S(=O)(=O)NC(=O)OCC=C(C)C)cc1F | – | – | – | – |
| 1.1 | 0.9 | 0.3 | 0.62 | 10 | 0.33 | 0.3 | 9.2 | 0.2 | CCc1nc2ccc(NC(=O)N(C)C(C)C)cc2c(=O)n1Cc1ccc(-c2ccccc2S(=O)(=O)NC(=O)OCCC(C)C)cc1F | – | – | – | – |
| 0.3 | 0.18 | 0.61 | 2.2 | 65 | 0.1 | 2 | 11 | 0.21 | CCc1nc2ccc(NC(=O)N(C)C(C)C)cc2c(=O)n1Cc1ccc(-c2ccccc2S(=O)(=O)NC(=O)COCC(C)C)cc1F | – | – | – | – |
